Measured values: publication PMC8151276, “An Integrated Approach toward NanoBRET Tracers for Analysis of GPCR Ligand Engagement” (Molecules, 2021)

Assays:
Assay type in all cases: binding
ADORA1 = target: T1, ADORA1 (Homo sapiens, UniProt P30542); assay: NanoBRET screen HiBiT-ADORA1 in HEK293
T1 construct: purchased Promega (in-house HiBiT-GPCR construct library, NanoBRET)
T1 sequence (P30542 1-326): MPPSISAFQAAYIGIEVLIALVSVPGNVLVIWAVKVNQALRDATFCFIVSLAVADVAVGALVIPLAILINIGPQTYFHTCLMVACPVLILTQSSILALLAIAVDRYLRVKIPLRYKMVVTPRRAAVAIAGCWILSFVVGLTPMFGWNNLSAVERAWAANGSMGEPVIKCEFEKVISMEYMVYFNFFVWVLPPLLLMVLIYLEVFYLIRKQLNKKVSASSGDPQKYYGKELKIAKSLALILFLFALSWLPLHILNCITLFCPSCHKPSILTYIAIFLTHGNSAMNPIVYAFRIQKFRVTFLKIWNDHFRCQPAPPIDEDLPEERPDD
Procedure: (§1) Each tracer candidate was screened across the entire library of HiBiT-GPCR constructs using NanoBRET as the detection modality. As depicted in Figure 4A, the specificity of interactions was evaluated through decrease in BRET due to competitive displacement of a bound tracer by excess parental compound. Each tracer was analyzed for binding to each HiBiT-GPCR fusion in the absence and in the presence of competing parental compound. Briefly, HEK293 cells were transfected with HiBiT-GPCR constructs diluted into promoterless DNA to reduce expression and maximize translocation to the cell surface. Each tracer candidate was then screened at concentrations of 1 μM and 0.1 μM across cells expressing these fusions. Cells were treated for 1.5 h with tracer either alone or in the presence of 20 μM competing parental compound (i.e., control). BRET was measured upon addition of purified LgBiT and subsequent complementation with HiBiT genetically fused to a GPCR. The specificity of interactions was assessed through a decrease in BRET signal due to competitive displacement of the bound tracer. To further gauge the robustness of these interactions, the fold response over the control (i.e., BRETtracer/BRETcontrol) was calculated. We chose a 1.5-fold response, which translates to ≥7-fold signal over noise as the minimal threshold required to score an interaction as positive. […]. Below we highlight the screening results obtained for our exemplary fluorescent tracers based on Clozapine, Amitriptyline and AZD1283.
(§2) HiBiT-GPCR DNA constructs were diluted in 10 mM Tris pH 8 to a final concentration of 0.01 μg/μL, arrayed in 96-well plates and stored at −20 °C. For transfection, HEK293 cells were suspended in Opti-MEM (without phenol red) supplemented with 2% fetal bovine serum (Seradigm) and 100 units/mL penicillin–streptomycin (Gibco) at a final concentration of 220,000 cells/mL and dispensed into white 96-well plates at 90 μL/well. Subsequent transfections and screens were carried using an Agilent Bravo Automated Liquid Handling Platform. First, the 96-well HiBiT DNA arrays were diluted 25-fold in Opti-MEM (without serum or phenol red) to a final concentration of 0.0004 μg/μL and 20 μL of the diluted DNAs were transferred into new 96-well plates. Next, promoterless carrier DNA (1 μg/μL) was diluted 25-fold (0.04 μg/μL) and then dispensed into the diluted arrays at 20 μL/well. Following brief mixing, Viafect transfection reagent (Promega) diluted 16-fold into Opti-MEM was dispensed into the plates at 40 μL/well. After mixing by pipetting, plates were incubated for 10 min on the pipetting station deck. The DNA-transfection reagent complexes were then added to plates containing cells. To facilitate the screen, 10 μL of DNA-transfection reagent complexes were added in duplicates to the top 4 and bottom 4 rows, resulting in two identical 48-well arrays per plate. Plates with transfected cells were incubated for 18–20 h at 37 °C/5% CO2. A screen of each tracer across the entire library using two different concentrations requires duplicate plates of transfected cells. Depending on the number of tracers being screened, transfections can be scaled up using the same ratios. The next day, for each tracer, four 20× screening solutions in tracer dilution buffer (Promega) were prepared: two duplicates at final concentration of 20 μM and two duplicates at a final concentration of 2 μM. A competing unmodified compound was added to one of each duplicate at a final concentration of 400 μM. The four resulting solutions were diluted 4-fold in Opti-MEM without serum or phenol red to generate 5× solutions (5 µM and 0.5 µM tracer +/− 100 μM competing compound). To screen the library, a BioTek MultiFlo FX liquid dispenser was used to dispense 22.5 µL of tracer solution to the top 4 rows and 22.5 µL tracer + competing compound solution to the 4 bottom rows. Plates were briefly mixed on an orbital shaker and incubated for 1.5 h at room temperature. […]

FZD9 = target: T2, FZD9 (Homo sapiens, UniProt O00144); assay: NanoBRET screen HiBiT-FZD9 in HEK293
T2 construct: purchased Promega (in-house HiBiT-GPCR construct library, NanoBRET)
T2 sequence (O00144 23-591): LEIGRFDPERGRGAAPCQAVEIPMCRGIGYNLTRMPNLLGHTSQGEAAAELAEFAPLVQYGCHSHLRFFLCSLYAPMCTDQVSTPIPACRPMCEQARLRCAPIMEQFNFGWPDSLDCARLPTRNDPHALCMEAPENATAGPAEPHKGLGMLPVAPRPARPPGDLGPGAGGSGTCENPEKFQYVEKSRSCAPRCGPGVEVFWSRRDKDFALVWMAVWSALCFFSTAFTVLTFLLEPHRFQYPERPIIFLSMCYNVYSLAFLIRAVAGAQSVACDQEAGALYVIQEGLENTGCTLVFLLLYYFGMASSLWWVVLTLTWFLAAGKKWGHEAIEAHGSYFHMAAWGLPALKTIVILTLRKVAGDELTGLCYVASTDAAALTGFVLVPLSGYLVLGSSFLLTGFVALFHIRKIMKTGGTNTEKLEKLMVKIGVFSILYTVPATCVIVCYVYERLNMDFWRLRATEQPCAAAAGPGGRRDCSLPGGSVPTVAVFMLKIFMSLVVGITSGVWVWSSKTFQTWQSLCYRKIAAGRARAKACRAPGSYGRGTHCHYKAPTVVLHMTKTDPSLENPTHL
Procedure: as §1, §2

P2RY11 = target: T3, P2RY11 (Homo sapiens, UniProt Q96G91); assay: NanoBRET screen HiBiT-P2RY11 in HEK293
T3 construct: purchased Promega (in-house HiBiT-GPCR construct library, NanoBRET)
T3 sequence (Q96G91 1-374): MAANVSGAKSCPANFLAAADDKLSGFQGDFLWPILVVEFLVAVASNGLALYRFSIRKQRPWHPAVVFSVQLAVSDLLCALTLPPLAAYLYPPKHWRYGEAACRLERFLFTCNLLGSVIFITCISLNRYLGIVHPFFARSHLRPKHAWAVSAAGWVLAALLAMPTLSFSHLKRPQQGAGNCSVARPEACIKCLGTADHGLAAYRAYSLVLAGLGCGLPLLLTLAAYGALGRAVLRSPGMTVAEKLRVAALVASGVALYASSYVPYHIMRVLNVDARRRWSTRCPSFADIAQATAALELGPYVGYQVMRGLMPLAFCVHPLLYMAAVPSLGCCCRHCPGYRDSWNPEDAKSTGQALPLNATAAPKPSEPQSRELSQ
Procedure: as §1, §2

GRM5 = target: T4, GRM5 (Homo sapiens, UniProt P41594); assay: NanoBRET screen HiBiT-GRM5 in HEK293
T4 construct: purchased Promega (in-house HiBiT-GPCR construct library, NanoBRET)
Procedure: as §1, §2

[1] = tracer at 1μM, listed as amitriptyline-b-2-NB590
[2] = tracer at 0.1μM, listed as amitriptyline-b-2-NB590

T4 sequence (P41594 21-1212): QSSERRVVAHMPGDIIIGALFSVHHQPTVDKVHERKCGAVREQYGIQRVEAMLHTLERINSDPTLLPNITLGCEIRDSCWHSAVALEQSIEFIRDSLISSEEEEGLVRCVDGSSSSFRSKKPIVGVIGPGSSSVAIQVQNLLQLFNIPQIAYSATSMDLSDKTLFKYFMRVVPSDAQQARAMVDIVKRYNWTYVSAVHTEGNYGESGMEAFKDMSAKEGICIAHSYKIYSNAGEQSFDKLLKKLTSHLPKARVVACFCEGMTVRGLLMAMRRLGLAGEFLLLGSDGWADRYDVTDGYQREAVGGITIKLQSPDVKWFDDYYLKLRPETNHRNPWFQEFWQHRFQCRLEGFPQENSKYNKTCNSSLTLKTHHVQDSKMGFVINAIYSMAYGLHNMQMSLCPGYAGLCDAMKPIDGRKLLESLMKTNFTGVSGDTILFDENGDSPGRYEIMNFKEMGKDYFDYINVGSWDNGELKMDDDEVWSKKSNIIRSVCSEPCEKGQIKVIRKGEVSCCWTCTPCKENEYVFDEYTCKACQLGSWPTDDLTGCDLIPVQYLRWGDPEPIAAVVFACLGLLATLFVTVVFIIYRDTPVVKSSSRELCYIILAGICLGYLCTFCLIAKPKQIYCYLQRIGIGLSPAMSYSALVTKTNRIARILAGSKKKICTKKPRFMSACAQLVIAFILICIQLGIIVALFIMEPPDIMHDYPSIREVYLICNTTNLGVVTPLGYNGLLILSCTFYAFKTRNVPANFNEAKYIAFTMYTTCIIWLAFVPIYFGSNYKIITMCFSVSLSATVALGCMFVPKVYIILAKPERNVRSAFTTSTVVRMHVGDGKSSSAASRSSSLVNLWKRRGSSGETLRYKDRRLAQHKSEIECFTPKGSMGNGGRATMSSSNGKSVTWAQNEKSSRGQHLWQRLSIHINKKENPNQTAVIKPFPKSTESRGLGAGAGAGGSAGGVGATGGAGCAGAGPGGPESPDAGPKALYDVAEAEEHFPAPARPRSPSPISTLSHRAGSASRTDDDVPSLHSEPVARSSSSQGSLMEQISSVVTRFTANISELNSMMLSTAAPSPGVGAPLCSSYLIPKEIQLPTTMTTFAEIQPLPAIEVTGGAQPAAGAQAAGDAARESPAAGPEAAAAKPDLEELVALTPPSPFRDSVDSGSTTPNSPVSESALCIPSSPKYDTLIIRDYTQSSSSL

SMILES | NanoBRET Fold Response (ADORA1; ADORA1, tracer 0.1μM) | NanoBRET Fold Response (ADORA1; ADORA1, tracer 1μM) | NanoBRET Fold Response (FZD9; FZD9, tracer 0.1μM) | NanoBRET Fold Response (FZD9; FZD9, tracer 1μM) | NanoBRET Fold Response (P2RY11; P2RY11, tracer 0.1μM) | NanoBRET Fold Response (P2RY11; P2RY11, tracer 1μM) | NanoBRET Fold Response (GRM5; GRM5, tracer 0.1μM) | NanoBRET Fold Response (GRM5; GRM5, tracer 1μM) | other results
CC(C)N(CC[C@H](c1ccccc1)c1cc(CCNC(=O)CCOCCOCCOCCOCCNC(=O)CCc2ccc3n2[B-](F)(F)[N+]2=C(c4ccc[nH]4)C=CC2=C3)ccc1O)C(C)C [Tolterodine-2-NB590] | 0.95 | 0.99 | 0.96 | 0.85 | 1.31 | 0.83 | 0.99 | 0.87 | 
N#CN=C(NCCCOc1cccc(CN2CCCCC2)c1)NCCNC(=O)CCOCCOCCOCCOCCNC(=O)CCc1ccc2n1[B-](F)(F)[N+]1=C(c3ccc[nH]3)C=CC1=C2 [Aminopotentidine-2-NB590] | 1.04 | 1.01 | 1.08 | 1.01 | 1.14 | 1.03 | 1.01 | 0.98 | 
CCOC(=O)c1cc(C#N)c(N2CCC(C(=O)NS(=O)(=O)Cc3ccccc3/C=C/C(=O)NCCNC(=O)CCc3ccc4n3[B-](F)(F)[N+]3=C(c5ccc[nH]5)C=CC3=C4)CC2)nc1C [AZD1283-1-NB590] |  |  |  |  |  |  |  |  | NanoBRET Fold Response (ADORA1; ADORA1, 0.1μM): 1.18; NanoBRET Fold Response (ADORA1; ADORA1, 1μM): 1.07; NanoBRET Fold Response (FZD9; FZD9, 0.1μM): 1.05; NanoBRET Fold Response (FZD9; FZD9, 1μM): 1.02; NanoBRET Fold Response (P2RY11; P2RY11, 0.1μM): 1.09; NanoBRET Fold Response (P2RY11; P2RY11, 1μM): 1.04; NanoBRET Fold Response (GRM5; GRM5, 0.1μM): 1.01; NanoBRET Fold Response (GRM5; GRM5, 1μM): 0.97
CN(C)CCC=C1c2ccccc2CCc2ccc(C(=O)NCCNC(=O)CCOCCOCCOCCOCCNC(=O)CCc3ccc4n3[B-](F)(F)[N+]3=C(c5ccc[nH]5)C=CC3=C4)cc21 [Amitriptyline-b-2-NB590] |  |  |  |  |  |  | 1.05 | 1.02 | NanoBRET Fold Response (ADORA1; [1]): 1.01; NanoBRET Fold Response (FZD9; [2]): 1.04; NanoBRET Fold Response (FZD9; [1]): 1.11; NanoBRET Fold Response (P2RY11; [2]): 0.88; NanoBRET Fold Response (P2RY11; [1]): 0.96
O=C(CCc1ccc2n1[B-](F)(F)[N+]1=C(c3ccc[nH]3)C=CC1=C2)NCCOCCOCCNC(=O)OCCOCCN1CCN(C2=Nc3ccccc3Sc3ccccc32)CC1 [Quetiapine-a-2-NB590] | 1.30 | 1.07 | 0.84 | 0.78 | 1.05 | 0.91 | 1.08 | 1.05 | 
Cc1cc2c(s1)Nc1ccccc1N=C2N1CCN(CCCNC(=O)CCOCCOCCOCCOCCNC(=O)CCc2ccc3n2[B-](F)(F)[N+]2=C(c4ccc[nH]4)C=CC2=C3)CC1 [Olanzapine-a-2-NB590] | 1.09 | 1.22 | 0.95 | 0.95 | 1.00 | 0.89 | 0.95 | 0.97 | 
CN1CCN(C2=Nc3cc(Cl)ccc3Nc3ccc(CNC(=O)CCOCCOCCOCCOCCNC(=O)CCc4ccc5n4[B-](F)(F)[N+]4=C(c6ccc[nH]6)C=CC4=C5)cc32)CC1 [Clozapine-b-2-NB590] |  |  |  |  |  |  |  |  | NanoBRET Fold Response (ADORA1; ADORA1, 0.1μM tracer): 0.99; NanoBRET Fold Response (ADORA1; ADORA1, 1μM tracer): 0.97; NanoBRET Fold Response (FZD9; FZD9, 0.1μM tracer): 1.02; NanoBRET Fold Response (FZD9; FZD9, 1μM tracer): 1.05; NanoBRET Fold Response (P2RY11; P2RY11, 0.1μM tracer): 1.04; NanoBRET Fold Response (P2RY11; P2RY11, 1μM tracer): 0.98; NanoBRET Fold Response (GRM5; GRM5, 0.1μM tracer): 0.99; NanoBRET Fold Response (GRM5; GRM5, 1μM tracer): 1.01
COc1ccc2c(n1)c(CCNC(C)=O)cn2CCNC(=O)CCc1ccc2n1[B-](F)(F)[N+]1=C(c3ccc[nH]3)C=CC1=C2 [Azamelatonin-1-NB590] |  |  |  |  |  |  |  |  | NanoBRET Fold Response (ADORA1; 0.1μM tracer): 0.87; NanoBRET Fold Response (ADORA1; 1μM tracer): 0.95; NanoBRET Fold Response (FZD9; 0.1μM tracer): 1.17; NanoBRET Fold Response (FZD9; 1μM tracer): 1.15; NanoBRET Fold Response (P2RY11; 0.1μM tracer): 0.89; NanoBRET Fold Response (P2RY11; 1μM tracer): 0.89; NanoBRET Fold Response (GRM5; 0.1μM tracer): 0.84; NanoBRET Fold Response (GRM5; 1μM tracer): 0.95
